Reference: US12414974B2, “Materials and methods for treating cancer” (priority 2017, dated 2025)

System: GBM39 cells
Assay: MV growth kinetics (virus production, titration on Vero cells)
Assay type: cell-based, human
Method: MV strains and virus propagation. Generation and characterization of MV strains expressing human iodide symporter (MV-NIS), human carcinoembryonic antigen (MV-CEA) and green fluorescent protein (MV-GFP) has been described elsewhere (see, e.g., Dingli et al. 2004 Blood 103:1641-1646; Peng et al. 2002 Cancer Res 62:4656-4662; Duprex et al. 1999 J Virol 73:9568-9575). Viruses were propagated on Vero cells and viral stocks were prepared by repeated freezing-thawing and stored frozen at −80° C. MV titers were determined in tissue culture infectious doses 50% (TCID50) per ml by titration on Vero cells described elsewhere (see, e.g., Iankov et al. 2009 Mol Ther 17:1395-1403). High grade purified viral stocks from supernatant released viruses were prepared as described elsewhere (see, e.g., Langfield et al. 2011 Methods Mol Biol 737:345-366).
MV growth kinetics. Growth kinetics of MV in primary GBM cells was determined by titration on Vero cells for the cell-associated virus at different time points post infection with MV-NIS. Briefly, the 4×10^5 cells were inoculated at a MOI of 0.1 with MV-NIS and incubated in 6-well cell culture plates (Falcon). […] Wells positive for syncytia were counted at 72 hours and virus titers were calculated as described above. […]

## N#CC[C@H](C1CCCC1)n1cc(-c2ncnc3[nH]ccc23)cn1 [Jakafi, Ruxolitinib]
GBM39, 3 μM for 48 hours prior to infection, MV-NIS MOI 0.1, 96 hours
  increase of MV-NIS virus production vs control: ~1000 fold
GBM39, 3 μM, MV MOI 0.1, virus production 48 hours post-infection
  time of addition still sufficient to restore MV production: up to 12 hours post-infection
